Laboratory results from ChEMBL document CHEMBL4334438, “Discovery of novel glycogen synthase kinase-3α inhibitors: Structure-based virtual screening, preliminary SAR and biological evaluation for treatment of acute myeloid leukemia” (Eur J Med Chem, 2019).

Key:
[1] = target: Ribosomal protein S6 kinase alpha-3 (Homo sapiens) (UniProt P51812); experiment: Inhibition of recombinant human Rsk2 (2 to end residues) assessed as residual activity at 1 uM using KKKNRTLSVA as substrate measured after 40 mins in presence of [gamma33P]ATP by scintillation counting method relative to control
[2] = system: Tyrosine-protein kinase ABL1 (Homo sapiens), P00519 [Q252H]; experiment: Inhibition of human ABL1 Q252H mutant (27 to end residues) assessed as residual activity at 1 uM using EAIYAAPFAKKK as substrate incubated for 40 mins in presence of [gamma-33ATP] by scintillation counting based radiometry assay relative to control
[3] = target: Serine/threonine-protein kinase PRP4 homolog (Homo sapiens) (UniProt Q13523); experiment: Inhibition of recombinant human PRP4 (663 to end residues) assessed as residual activity at 1 uM using casein as substrate measured after 40 mins in presence of [gamma33P]ATP by scintillation counting method relative to control
[4] = system: RAC-beta serine/threonine-protein kinase (Homo sapiens), P31751 [S474D]; experiment: Inhibition of recombinant human PKBbeta S474D mutant (120 to end residues) assessed as residual activity at 1 uM using GRPRTSSFAEGKK as substrate measured after 40 mins in presence of [gamma33P]ATP by scintillation counting method relative to control
[5] = target: Dual specificity tyrosine-phosphorylation-regulated kinase 2 (Homo sapiens) (UniProt Q92630); experiment: Inhibition of recombinant human DYRK2 assessed as residual activity at 1 uM using casein as substrate at 40 mins in presence of [gamma-33ATP] by scintillation counting based radiometry assay relative to control
Chain of Dual specificity tyrosine-phosphorylation-regulated kinase 2 (Homo sapiens) (Q92630 whole entry): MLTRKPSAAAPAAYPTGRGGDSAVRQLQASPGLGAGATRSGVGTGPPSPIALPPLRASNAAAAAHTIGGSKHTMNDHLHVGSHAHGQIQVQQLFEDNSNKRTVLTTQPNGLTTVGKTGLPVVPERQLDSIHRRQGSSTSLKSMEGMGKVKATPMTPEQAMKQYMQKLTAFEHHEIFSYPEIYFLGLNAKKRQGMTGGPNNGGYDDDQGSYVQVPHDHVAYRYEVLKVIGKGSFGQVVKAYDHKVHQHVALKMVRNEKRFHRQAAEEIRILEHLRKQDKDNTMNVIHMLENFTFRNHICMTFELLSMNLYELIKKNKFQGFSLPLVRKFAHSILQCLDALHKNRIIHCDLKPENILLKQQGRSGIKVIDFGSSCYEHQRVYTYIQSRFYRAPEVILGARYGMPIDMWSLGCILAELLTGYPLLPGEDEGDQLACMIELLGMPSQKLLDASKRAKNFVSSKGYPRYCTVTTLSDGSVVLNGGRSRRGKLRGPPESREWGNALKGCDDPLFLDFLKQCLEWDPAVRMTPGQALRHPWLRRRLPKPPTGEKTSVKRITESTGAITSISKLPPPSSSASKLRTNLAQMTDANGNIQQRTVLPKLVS

[6] = target: Tyrosine-protein kinase Fgr (Homo sapiens) (UniProt P09769); experiment: Inhibition of recombinant human FGR (2 to end residues) assessed as residual activity at 1 uM using poly(Glu, Tyr) 4:1 as substrate at 40 mins in presence of [gamma-33ATP] by scintillation counting based radiometry assay relative to control
Chain of Tyrosine-protein kinase Fgr (Homo sapiens) (P09769 2-529 limits assumed): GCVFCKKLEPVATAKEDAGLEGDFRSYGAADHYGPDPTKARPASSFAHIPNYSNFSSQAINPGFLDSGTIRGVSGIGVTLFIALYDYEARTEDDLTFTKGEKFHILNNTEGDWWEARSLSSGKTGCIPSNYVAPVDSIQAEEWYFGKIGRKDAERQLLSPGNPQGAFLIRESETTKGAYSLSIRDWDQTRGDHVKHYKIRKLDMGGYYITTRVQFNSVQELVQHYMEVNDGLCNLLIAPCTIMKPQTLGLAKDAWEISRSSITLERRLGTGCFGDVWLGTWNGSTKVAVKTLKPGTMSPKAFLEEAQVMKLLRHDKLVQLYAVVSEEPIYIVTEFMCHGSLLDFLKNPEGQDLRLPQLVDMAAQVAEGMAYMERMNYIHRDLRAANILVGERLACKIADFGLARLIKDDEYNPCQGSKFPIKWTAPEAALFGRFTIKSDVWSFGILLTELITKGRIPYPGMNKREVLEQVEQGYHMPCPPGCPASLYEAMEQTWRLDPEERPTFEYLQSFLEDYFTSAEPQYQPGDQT

[7] = target: Cyclin-dependent kinase-like 2 (Homo sapiens) (UniProt Q92772); experiment: Inhibition of recombinant full length human CDKL2 assessed as residual activity at 1 uM in presence of [gamma-33ATP] by scintillation counting based radiometry assay relative to control
Chain of Cyclin-dependent kinase-like 2 (Homo sapiens) (Q92772 whole entry): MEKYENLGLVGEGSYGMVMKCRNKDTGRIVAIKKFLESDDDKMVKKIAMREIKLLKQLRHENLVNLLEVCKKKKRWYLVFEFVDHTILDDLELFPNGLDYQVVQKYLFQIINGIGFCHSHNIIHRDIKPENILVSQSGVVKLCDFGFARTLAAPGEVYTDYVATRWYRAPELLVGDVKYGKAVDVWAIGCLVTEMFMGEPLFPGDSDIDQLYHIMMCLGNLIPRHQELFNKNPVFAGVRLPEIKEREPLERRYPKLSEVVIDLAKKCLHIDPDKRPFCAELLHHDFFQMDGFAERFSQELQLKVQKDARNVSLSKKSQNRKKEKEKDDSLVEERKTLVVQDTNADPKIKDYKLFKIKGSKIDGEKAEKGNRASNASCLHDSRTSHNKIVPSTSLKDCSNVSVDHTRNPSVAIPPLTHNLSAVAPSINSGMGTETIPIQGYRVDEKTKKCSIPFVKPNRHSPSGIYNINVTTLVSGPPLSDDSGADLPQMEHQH

[8] = target: Dual specificity protein kinase CLK2 (Homo sapiens) (UniProt P49760); experiment: Inhibition of recombinant human CLK2 (138 to end residues) assessed as residual activity at 1 uM using YRRAAVPPSPSLSRHSSPHQS(p)EDEEE as substrate incubated 40 mins in presence of [gamma-33ATP] by scintillation counting based radiometry assay relative to control
Homo sapiens [9] = species: Homo sapiens; experiment: Inhibition of recombinant human FLT4 V1128L/ H1146R double mutant (800 to end residues) assessed as residual activity at 1 uM using GGEEEEYFELVKKKK as substrate at 40 mins in presence of [gamma-33ATP] by scintillation counting based radiometry assay relative to control
[10] = target: cAMP-dependent protein kinase catalytic subunit alpha (Homo sapiens) (UniProt P17612); experiment: Inhibition of recombinant human PKA assessed as residual activity at 1 uM using Kemptide as substrate measured after 40 mins in presence of [gamma33P]ATP by scintillation counting method relative to control
[11] = target: Cyclin-dependent kinase 5/CDK5 activator 1 (Homo sapiens) (UniProt Q00535+Q15078); experiment: Inhibition of recombinant full length human CDK5/p25 assessed as residual activity at 1 uM using histone H1 as substrate incubated for 40 mins in presence of [gamma-33ATP] by scintillation counting based radiometry assay relative to control; format: protein-complex assay
Chain of Cyclin-dependent kinase 5/CDK5 activator 1 (Homo sapiens) (Q00535 whole entry, the tested form may be a part): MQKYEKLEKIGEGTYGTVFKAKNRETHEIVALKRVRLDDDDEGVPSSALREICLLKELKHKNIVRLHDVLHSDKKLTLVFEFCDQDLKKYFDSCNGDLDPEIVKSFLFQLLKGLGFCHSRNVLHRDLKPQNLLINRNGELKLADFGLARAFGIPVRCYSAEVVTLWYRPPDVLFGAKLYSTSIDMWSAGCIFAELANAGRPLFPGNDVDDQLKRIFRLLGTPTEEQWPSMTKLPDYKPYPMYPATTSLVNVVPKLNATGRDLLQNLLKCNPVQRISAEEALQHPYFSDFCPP
Chain of Cyclin-dependent kinase 5/CDK5 activator 1 (Homo sapiens) (Q15078 99-307 partner limits assumed): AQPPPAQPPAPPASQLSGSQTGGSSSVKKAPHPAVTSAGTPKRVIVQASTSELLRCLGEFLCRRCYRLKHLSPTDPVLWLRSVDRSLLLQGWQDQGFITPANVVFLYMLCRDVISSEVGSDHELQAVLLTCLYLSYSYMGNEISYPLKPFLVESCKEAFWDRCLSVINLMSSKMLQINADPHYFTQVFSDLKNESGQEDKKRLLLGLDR

[12] = system: Ribosomal protein S6 kinase beta-1 (Homo sapiens), P23443 [T412E]; experiment: Inhibition of recombinant human p70S6K T412E mutant (1 to 421 residues) assessed as residual activity at 1 uM using KKRNRTLTV as substrate measured after 40 mins in presence of [gamma33P]ATP by scintillation counting method relative to control
[13] = target: Serine/threonine-protein kinase DCLK3 (Homo sapiens) (UniProt Q9C098); experiment: Inhibition of recombinant human DCAMKL3 (345 to end residues) assessed as residual activity at 1 uM using KKLNRTLSFAEPG as substrate at 40 mins in presence of [gamma-33ATP] by scintillation counting based radiometry assay relative to control
Chain of Serine/threonine-protein kinase DCLK3 (Homo sapiens) (Q9C098 whole entry): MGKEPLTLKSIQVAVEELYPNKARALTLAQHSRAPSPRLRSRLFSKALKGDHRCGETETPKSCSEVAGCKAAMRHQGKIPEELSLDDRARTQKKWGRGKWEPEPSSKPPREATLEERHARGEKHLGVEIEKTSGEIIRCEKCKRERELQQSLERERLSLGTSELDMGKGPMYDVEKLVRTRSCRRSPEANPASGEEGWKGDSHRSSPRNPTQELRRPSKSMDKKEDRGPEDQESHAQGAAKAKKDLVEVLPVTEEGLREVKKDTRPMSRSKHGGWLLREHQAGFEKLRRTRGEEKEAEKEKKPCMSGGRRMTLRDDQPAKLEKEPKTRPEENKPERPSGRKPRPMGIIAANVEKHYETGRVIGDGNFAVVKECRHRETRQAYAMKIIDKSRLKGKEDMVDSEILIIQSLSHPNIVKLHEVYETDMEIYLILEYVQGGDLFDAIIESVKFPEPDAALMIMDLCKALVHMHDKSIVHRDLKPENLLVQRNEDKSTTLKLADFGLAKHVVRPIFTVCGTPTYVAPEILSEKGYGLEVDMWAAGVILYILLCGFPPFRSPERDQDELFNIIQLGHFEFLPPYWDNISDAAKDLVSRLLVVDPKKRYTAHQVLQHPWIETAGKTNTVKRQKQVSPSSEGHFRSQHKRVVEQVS

[14] = target: Dual specificity tyrosine-phosphorylation-regulated kinase 1A (Homo sapiens) (UniProt Q13627); experiment: Inhibition of recombinant human DYRK1A assessed as residual activity at 1 uM using RRRFRPASPLRGPPK as substrate at 40 mins in presence of [gamma-33ATP] by scintillation counting based radiometry assay relative to control
[15] = target: Serine/threonine-protein kinase TBK1 (Homo sapiens) (UniProt Q9UHD2); experiment: Inhibition of recombinant full-length human TBK1 at 1 uM assessed as residual activity at 1 uM using KRRRALS(p)VASLPGL as substrate measured after 40 mins in presence of [gamma33P]ATP by scintillation counting method relative to control
Chain of Serine/threonine-protein kinase TBK1 (Homo sapiens) (Q9UHD2 whole entry): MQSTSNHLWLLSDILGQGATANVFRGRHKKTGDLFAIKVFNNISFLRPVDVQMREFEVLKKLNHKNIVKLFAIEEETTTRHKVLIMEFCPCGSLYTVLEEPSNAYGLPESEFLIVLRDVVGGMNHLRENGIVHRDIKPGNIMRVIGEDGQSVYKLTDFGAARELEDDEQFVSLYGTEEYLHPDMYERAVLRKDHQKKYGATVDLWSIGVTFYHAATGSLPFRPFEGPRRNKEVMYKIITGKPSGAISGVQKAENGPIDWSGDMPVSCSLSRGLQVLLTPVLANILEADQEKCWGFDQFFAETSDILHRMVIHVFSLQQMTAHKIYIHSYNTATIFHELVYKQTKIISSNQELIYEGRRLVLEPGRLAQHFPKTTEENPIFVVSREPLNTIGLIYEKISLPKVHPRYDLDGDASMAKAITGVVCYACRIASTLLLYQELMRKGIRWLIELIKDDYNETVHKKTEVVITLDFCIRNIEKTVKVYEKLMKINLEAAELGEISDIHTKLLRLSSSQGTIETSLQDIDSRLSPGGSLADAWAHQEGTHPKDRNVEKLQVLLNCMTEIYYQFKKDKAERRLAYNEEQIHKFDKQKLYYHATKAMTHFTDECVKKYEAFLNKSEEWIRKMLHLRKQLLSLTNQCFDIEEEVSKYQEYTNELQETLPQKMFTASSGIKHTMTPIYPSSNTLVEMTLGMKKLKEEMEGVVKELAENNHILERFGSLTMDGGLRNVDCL

[16] = system: TGF-beta receptor type-1 (Homo sapiens), P36897 [T204D]; experiment: Inhibition of human TGFBR1 T204D mutant (200 to end residues) assessed as residual activity at 1 uM using casein as substrate measured after 40 mins in presence of [gamma33P]ATP by scintillation counting method relative to control
Chain of TGF-beta receptor type-1 (Homo sapiens), P36897 [T204D] (P36897 whole entry T204D): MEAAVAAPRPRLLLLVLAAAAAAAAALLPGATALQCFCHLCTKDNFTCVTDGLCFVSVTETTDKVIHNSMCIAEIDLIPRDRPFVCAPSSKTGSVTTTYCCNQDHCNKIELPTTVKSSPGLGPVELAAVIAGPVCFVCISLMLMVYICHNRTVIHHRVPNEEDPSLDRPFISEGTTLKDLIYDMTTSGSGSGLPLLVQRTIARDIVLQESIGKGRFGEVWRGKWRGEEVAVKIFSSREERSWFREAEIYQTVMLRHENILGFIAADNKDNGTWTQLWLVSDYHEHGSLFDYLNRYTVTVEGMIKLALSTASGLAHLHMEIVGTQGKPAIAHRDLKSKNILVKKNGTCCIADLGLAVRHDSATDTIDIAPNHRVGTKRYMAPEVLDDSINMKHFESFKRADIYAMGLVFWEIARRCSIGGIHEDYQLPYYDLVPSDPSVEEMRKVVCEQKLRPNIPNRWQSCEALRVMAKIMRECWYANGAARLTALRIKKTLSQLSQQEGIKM

[17] = target: Serine/threonine-protein kinase MAK (Homo sapiens) (UniProt P20794); experiment: Inhibition of recombinant human MAK assessed as residual activity at 1 uM using RRRFRPASPLRGPPK as substrate after 120 mins in presence of [gamma-33ATP] by scintillation counting based radiometry assay relative to control
[18] = target: Aurora kinase B (Homo sapiens) (UniProt Q96GD4); experiment: Inhibition of recombinant full length human Aurora B assessed as residual activity at 1 uM using AKRRRLSSLRA as substrate incubated for 40 mins in presence of [gamma-33ATP] by scintillation counting based radiometry assay relative to control
Chain of Aurora kinase B (Homo sapiens) (Q96GD4 whole entry): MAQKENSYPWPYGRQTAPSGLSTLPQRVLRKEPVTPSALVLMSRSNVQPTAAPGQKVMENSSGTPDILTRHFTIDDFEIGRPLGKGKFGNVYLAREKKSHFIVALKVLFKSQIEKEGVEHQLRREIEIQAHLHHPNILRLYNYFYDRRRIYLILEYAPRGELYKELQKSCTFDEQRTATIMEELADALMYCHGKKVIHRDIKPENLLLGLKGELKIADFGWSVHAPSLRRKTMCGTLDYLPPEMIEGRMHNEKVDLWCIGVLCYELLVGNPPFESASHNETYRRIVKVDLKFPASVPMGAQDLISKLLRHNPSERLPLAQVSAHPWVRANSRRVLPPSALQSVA

[19] = target: Testis-specific serine/threonine-protein kinase 4 (Homo sapiens) (UniProt Q6SA08); experiment: Inhibition of recombinant full-length human TSSK4 at 1 uM assessed as residual activity at 1 uM using KKLNRTLSFAEPG as substrate measured after 40 mins in presence of [gamma33P]ATP by scintillation counting method relative to control
[20] = target: Tyrosine-protein kinase Lyn (Homo sapiens) (UniProt P07948); experiment: Inhibition of recombinant human Lyn assessed as residual activity at 1 uM using poly(Glu, Tyr) 4:1 as substrate after 40 mins in presence of [gamma-33ATP] by scintillation counting based radiometry assay relative to control
Chain of Tyrosine-protein kinase Lyn (Homo sapiens) (P07948 2-512 limits assumed): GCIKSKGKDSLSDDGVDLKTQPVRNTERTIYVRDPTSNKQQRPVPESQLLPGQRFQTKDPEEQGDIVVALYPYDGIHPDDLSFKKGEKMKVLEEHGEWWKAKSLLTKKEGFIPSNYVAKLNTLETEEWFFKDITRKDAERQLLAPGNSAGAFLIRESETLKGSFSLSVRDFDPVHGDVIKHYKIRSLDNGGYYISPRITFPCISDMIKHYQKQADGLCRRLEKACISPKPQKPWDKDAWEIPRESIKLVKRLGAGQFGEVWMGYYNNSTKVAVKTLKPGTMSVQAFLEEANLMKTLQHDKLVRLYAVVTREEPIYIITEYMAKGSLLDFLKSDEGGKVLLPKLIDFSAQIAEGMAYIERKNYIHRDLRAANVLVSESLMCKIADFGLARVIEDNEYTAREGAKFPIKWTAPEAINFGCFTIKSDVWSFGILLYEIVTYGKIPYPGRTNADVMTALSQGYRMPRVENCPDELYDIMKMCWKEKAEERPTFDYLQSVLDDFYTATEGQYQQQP

Homo sapiens [21] = species: Homo sapiens; experiment: Inhibition of human activated Tec F514V mutant (174 to end residues) assessed as residual activity at 1 uM using EFPIYDFLPAKKK as substrate measured after 40 mins in presence of [gamma33P]ATP by scintillation counting method relative to control

SMILES | Activity [1] [%] | Activity [2] [%] | Activity [3] [%] | Activity [4] [%] | Activity [5] [%] | Activity [6] [%] | Activity [7] [%] | Activity [8] [%] | Activity (Homo sapiens [9]) [%] | Activity [10] [%] | Activity [11] [%] | Activity [12] [%] | Activity [13] [%] | Activity [14] [%] | Activity [15] [%] | Activity [16] [%] | Activity [17] [%] | Activity [18] [%] | Activity [19] [%] | Activity [20] [%] | also measured
C=CCOC(=O)c1cc(-c2ccc(/C=C3/NC(=S)NC3=O)o2)ccc1Cl | 112 | 110 | 92 | 102 | 91 | 90 | 68 | 38 | 82 | 82 | 58 | 108 | 103 | 16 | 98 | 92 | 37 | 110 | 121 | 92 | Activity (Homo sapiens [21]): 99%
N=C1NC(=O)/C(=C\c2ccc(-c3cccc([N+](=O)[O-])c3)o2)S1 | 85 | 80 | 86 | 111 | 82 | 81 | 74 | 39 | 116 | 107 | 75 | 99 | 92 | 25 | 105 | 111 | 17 | 94 | 102 | 83 | Activity (Homo sapiens [21]): 96%
